In US9211296B2, “Therapeutic compounds for blocking DNA synthesis of POX viruses” (priority 2007, dated 2015):
pIC50: −log10 of the molar value.

Experiments:
[1] = target: vaccinia E9 DNA polymerase (Vaccinia virus (strain Western Reserve) (VACV) (Vaccinia virus (strain WR)), UniProt P06856); assay: biochemical
BSC-1 cells [2] = assay: Cell viability at plaque IC50, cell counting; conditions: at plaque IC50 (1.6 μM), 24 hrs
Method: (§1) The cell viability at the plaque IC50 value was performed using two independent methods, cell counting and MTT assay. For the cell counting method, cells were incubated overnight at 37° C. to sub-confluency in 48-well plates. The compounds dissolved in DMSO, were further diluted in media to a final concentration required to achieve the plaque IC50 value. The cells were incubated with the compounds for 24 hrs. The media was removed, the cells trypsinized and stained with tryphan blue, and counted. The MTT assay was also used to confirm cell viability at the plaque IC50. Cells were seeded at 1.5×10^4 cells/well in a 96-well plate and incubated overnight at 37° C. at 5% CO2. […] Each well received 20 μL of the MTT solution (5 mg MTT/mL PBS) and the plate was rocked for 5 min. The plates were incubated for an additional 5 h to metabolize MTT, after which the media was removed, and the plates were air dried. To resuspend the formazan, the end product of the MTT assay, 200 μL of DMSO was added to each well and the plates were rocked for 5-10 min. Absorbance was read at 560 nm.

vaccinia virus [3] = assay: microbe, parasite or virus in culture; conditions: Orthopoxvirus vaccinia, BSC-1, 16 h, read-out: Plaque IC50
BSC-1 cells [4] = assay: Cell viability at plaque IC50, MTT assay; conditions: at plaque IC50 (1.6 μM), 16 h
Method: as §1

[5] = test system: vaccinia early gene E3 mRNA; assay type: cell-based, vaccinia virus
[6] = test system: vaccinia late gene F9 mRNA; assay type: cell-based, vaccinia virus
vaccinia late L1 protein = assay type: cell-based, vaccinia virus
[7] = test system: vaccinia early E3 protein; assay type: cell-based, vaccinia virus
vaccinia virus [8] = conditions: African green monkey
vaccinia virus [9] = assay type: cell-based
BSC-1 cells [10] = assay: aCella-TOX GAPDH release cytotoxicity assay (viridicatumtoxin study); conditions: cells exposed to 200 μM
[11] = as above; conditions: African green monkey, BSC-1 cells

In the case of `COc1cc(O)c2c(O)c3c(c4c2c1[C@]1(C4)C(C)=CCCC1(C)C)[C@H](O)[C@@]1(O)CC(O)=C(C(N)=O)C(=O)[C@@]1(O)C3=O` [Viridicatumtoxin, viridicatumtoxin], the pIC50 [1] was 4.20, the “% cell viability on plaque IC50, Cell count” value (BSC-1 cells [2]) was 92 ± 23% and the “% cell viability on plaque IC50, Cell count” value (BSC-1 cells [2]; listed as viridicatumtoxin) was “About 90%”. For the same compound, the pIC50 (vaccinia virus [3]) was 5.80, the “% cell viability on plaque IC50, MTT” value (BSC-1 cells [4]) was 83 ± 16% and the “% cell viability on plaque IC50, MTT” value (BSC-1 cells [4]; listed as viridicatumtoxin) was “about 85%”. The “Early E3 mRNA production” value [5] was “maximum at 3 h.p.i. and dropped back to low levels by 5 h.p.i”, the “Late F9 mRNA expression” value [6] was “only a marginal increase in F9 mRNA expression by 5 h.p.i” and the “Late L1 protein level” value (vaccinia late L1 protein) was “significantly decreased”. For the same compound, the “Early E3 protein level” value [7] was “no significant difference in the levels of E3”, the “Concentration at which the cells began to detach” value (vaccinia virus [8]) was ≥ 100 µM and the “Blocking the replication of vaccinia virus in cells” value (vaccinia virus [9]) was “particularly effective”. The “Cytotoxicity at highest exposure” value (BSC-1 cells [10]) was “not cytotoxic” and the CC50 [11] was > 200 µM.
